Assay type in all cases: functional
What all share (settings): 96 h, read-out: GI

Assay [1] has as its system Bipolaris sorokiniana. Description: Growth inhibition of Bipolaris sorokiniana at 50 ug/ml after 4 days by poisoned food technique.
The subject of assay [2] is Bipolaris sorokiniana. Description: Growth inhibition of Bipolaris sorokiniana at 500 ug/ml after 4 days by poisoned food technique.
The subject of assay [3] is Alternaria brassicae. Kind of assay: Growth inhibition of Alternaria brassicae at 50 ug/ml after 4 days by poisoned food technique.
In assay [4] the test system is Alternaria brassicae. Description: Growth inhibition of Alternaria brassicae at 500 ug/ml after 4 days by poisoned food technique.
The test system of assay [5] is Fusarium oxysporum f. sp. cucumerinum. Description: Growth inhibition of Fusarium oxysporum f. sp. cucumerinum at 50 ug/ml after 4 days by poisoned food technique.
Assay [6] shares this test system. Kind of assay: Growth inhibition of Fusarium oxysporum f. sp. cucumerinum at 500 ug/ml after 4 days by poisoned food technique.
Assay [7] relates to Fusarium oxysporum f. sp. vasinfectum. Description: Growth inhibition of Fusarium oxysporum f. sp. vasinfectum at 50 ug/ml after 4 days by poisoned food technique.
Assay [8] has the same test system. Description: Growth inhibition of Fusarium oxysporum f. sp. vasinfectum at 500 ug/ml after 4 days by poisoned food technique.
The subject of assay [9] is Pyricularia oryzae. Description: Growth inhibition of Magnaporthe oryzae at 50 ug/ml after 4 days by poisoned food technique.
In assay [10] the test system is Pyricularia oryzae. Kind of assay: Growth inhibition of Magnaporthe oryzae at 500 ug/ml after 4 days by poisoned food technique.
In assay [11] the test system is Alternaria alternata. Description: Growth inhibition of Alternaria alternata at 50 ug/ml after 4 days by poisoned food technique.
The test system of assay [12] is Fusarium graminearum. Kind of assay: Growth inhibition of Fusarium graminearum at 500 ug/ml after 4 days by poisoned food technique.
Assay [13] has as its system Alternaria alternata. Kind of assay: Growth inhibition of Alternaria alternata at 500 ug/ml after 4 days by poisoned food technique.
Assay [14] has as its system Fusarium graminearum. Kind of assay: Growth inhibition of Fusarium graminearum at 50 ug/ml after 4 days by poisoned food technique.

Among the data in ChEMBL document CHEMBL3046180, “Antifungal activity of some diaryl ethers” (2007) are inhibition of growth values, retold here.

The structures appear in SMILES notation.

With `O=[N+]([O-])c1ccc(Oc2ccccc2Cl)cc1`, the inhibition of growth at 50 µg/mL in the assay on Bipolaris sorokiniana [1] is 89.5%; in the assay on Alternaria brassicae [3], 36%; in assay [5] it was 38.8%; in assay [7], 47.5%; in the assay with Pyricularia oryzae [9] it was 47.8%; with Alternaria alternata [11], 60.4%. Further, the inhibition of growth at 50 µg/mL in the assay with Fusarium graminearum [14] is 79.5%. The inhibition of growth at 500 µg/mL in the assay on Bipolaris sorokiniana [2] was determined as 66%; with Alternaria brassicae [4], 65.3%; in assay [6] it was 75.5%; in assay [8], 55.6%; in the assay with Pyricularia oryzae [10], 77.5%; with Fusarium graminearum [12], 92.8%. In addition, the inhibition of growth at 500 µg/mL with Alternaria alternata [13] turned out to be 81.9%.
With `O=[N+]([O-])c1ccccc1Oc1ccccc1Cl`, the inhibition of growth at 50 µg/mL in the assay on Bipolaris sorokiniana [1] came out at 88.7%; in the assay with Alternaria brassicae [3] it was 64.5%; in assay [5] it was 48%; in assay [7], 59.7%; in the assay on Pyricularia oryzae [9], 51%; in the assay on Alternaria alternata [11], 52.8%. The inhibition of growth at 50 µg/mL with Fusarium graminearum [14] was 65.2%. The inhibition of growth at 500 µg/mL with Bipolaris sorokiniana [2] stood at 71.1%; in the assay on Alternaria brassicae [4], 76.2%; in assay [6] it was 53.8%; in assay [8], 58%; in the assay with Pyricularia oryzae [10] it was 71.6%; with Fusarium graminearum [12], 78.6%. Further, the inhibition of growth at 500 µg/mL in the assay on Alternaria alternata [13] stood at 74%.
For the compound `N#Cc1ccccc1Oc1ccc(Cl)cc1`, the inhibition of growth at 50 µg/mL in the assay on Bipolaris sorokiniana [1] came out at 68%; with Alternaria brassicae [3], 56.8%; in assay [5], 48.8%; in assay [7] it was 52.5%; with Pyricularia oryzae [9], 59.7%; with Alternaria alternata [11], 55.9%. Further, in the assay on Fusarium graminearum [14], the inhibition of growth at 50 µg/mL came out at 79.6%. The inhibition of growth at 500 µg/mL in the assay with Bipolaris sorokiniana [2] came out at 56.2%; in the assay with Alternaria brassicae [4], 74.1%; in assay [6] it was 54.3%; in [8] it was 57%; with Pyricularia oryzae [10], 77.7%; in the assay with Fusarium graminearum [12], 83.7%. Moreover, in the assay on Alternaria alternata [13], the inhibition of growth at 500 µg/mL was found to be 78%.
Consider `Cc1cccc(Oc2ccc([N+](=O)[O-])cc2)c1`, for which the inhibition of growth at 50 µg/mL with Bipolaris sorokiniana [1] was found to be 44.4%; in the assay with Alternaria brassicae [3], 37.3%; in assay [5] it was 57.9%; in [7], 65.1%; in the assay on Pyricularia oryzae [9], 39.2%; with Alternaria alternata [11], 48.4%. In the assay on Fusarium graminearum [14], the inhibition of growth at 50 µg/mL was 62.8%. Also, the inhibition of growth at 500 µg/mL stood at 32% with Bipolaris sorokiniana [2]; 52.8% in the assay on Alternaria brassicae [4]; 64.6% in [6]; 74.3% in assay [8]; 60.3% in the assay with Pyricularia oryzae [10]; 92.4% in the assay on Fusarium graminearum [12]. Besides, the inhibition of growth at 500 µg/mL with Alternaria alternata [13] came out at 61.2%.
Consider `O=[N+]([O-])c1ccc(Oc2ccccc2[N+](=O)[O-])cc1` [2,4'-OXYBIS(NITROBENZENE)], for which the inhibition of growth at 50 µg/mL was determined as 42.2% with Bipolaris sorokiniana [1]; 8.5% with Alternaria brassicae [3]; 9.3% in assay [5]; 19.3% in assay [7]; 31.4% in the assay on Pyricularia oryzae [9]; 49.3% with Alternaria alternata [11]. Besides, the inhibition of growth at 50 µg/mL in the assay with Fusarium graminearum [14] is 66.2%. Besides, the inhibition of growth at 500 µg/mL was 35.3% with Bipolaris sorokiniana [2]; 49.6% in the assay with Alternaria brassicae [4]; 33.3% in [6]; 42.7% in assay [8]; 47.1% in the assay with Pyricularia oryzae [10]; 68.7% in the assay on Fusarium graminearum [12]. Further, the inhibition of growth at 500 µg/mL with Alternaria alternata [13] amounted to 56.3%.
Regarding `CC(C)(C)c1ccc(Oc2ccccc2[N+](=O)[O-])cc1`, the inhibition of growth at 50 µg/mL was found to be 50.3% in the assay with Bipolaris sorokiniana [1]; 38.4% in the assay with Alternaria brassicae [3]; 8.4% in assay [5]; 19.3% in [7]; 37.9% in the assay with Pyricularia oryzae [9]; 33% with Alternaria alternata [11]. Moreover, the inhibition of growth at 50 µg/mL with Fusarium graminearum [14] was 38.8%. The inhibition of growth at 500 µg/mL with Bipolaris sorokiniana [2] came to 38.7%; in the assay with Alternaria brassicae [4], 37.4%; in [6], 17.3%; in assay [8], 11.2%; with Pyricularia oryzae [10], 44.8%; in the assay with Fusarium graminearum [12], 52.7%. Further, in the assay on Alternaria alternata [13], the inhibition of growth at 500 µg/mL was determined as 53.3%.
For `Cc1cc(O)no1` [HYMEXAZOL], the inhibition of growth at 50 µg/mL in the assay with Bipolaris sorokiniana [1] came out at 100%; in the assay on Alternaria brassicae [3] it was 89%; in [5] it was 19.8%; in assay [7], 45.8%; in the assay on Pyricularia oryzae [9], 66.4%; in the assay with Alternaria alternata [11] it was 82.3%. The inhibition of growth at 50 µg/mL with Fusarium graminearum [14] was determined as 38.7%. Also, the inhibition of growth at 500 µg/mL in the assay on Bipolaris sorokiniana [2] stood at 37.1%; in the assay with Alternaria brassicae [4] it was 100%; in assay [6], 91.5%; in assay [8], 92.3%; with Pyricularia oryzae [10], 100%; with Fusarium graminearum [12] it was 99.4%. In addition, the inhibition of growth at 500 µg/mL in the assay with Alternaria alternata [13] came to 100%.
As to `O=[N+]([O-])c1ccc(Oc2ccc([N+](=O)[O-])cc2)cc1` [4,4'-OXYBIS(NITROBENZENE)], the inhibition of growth at 50 µg/mL was determined as 20.4% in the assay with Bipolaris sorokiniana [1]; 36.8% in the assay on Alternaria brassicae [3]; 38% in assay [5]; 57.6% in [7]; 1.9% with Pyricularia oryzae [9]; 15% in the assay on Alternaria alternata [11]. In addition, the inhibition of growth at 50 µg/mL in the assay with Fusarium graminearum [14] is 13.6%. For the same compound, the inhibition of growth at 500 µg/mL with Bipolaris sorokiniana [2] was determined as 16.7%; with Alternaria brassicae [4], 75.2%; in [6] it was 50.9%; in assay [8], 63.6%; in the assay with Pyricularia oryzae [10], 36.6%; in the assay with Fusarium graminearum [12], 3.1%. In addition, the inhibition of growth at 500 µg/mL in the assay on Alternaria alternata [13] came to 19.8%.
For `CC(C)(C)c1ccc(Oc2ccccc2C#N)cc1`, the inhibition of growth at 50 µg/mL is 42.8% in the assay on Bipolaris sorokiniana [1]; 43.5% with Alternaria brassicae [3]; 20.4% in assay [5]; 20.1% in assay [7]; 43.7% with Pyricularia oryzae [9]; 35.8% in the assay with Alternaria alternata [11]. Moreover, the inhibition of growth at 50 µg/mL in the assay on Fusarium graminearum [14] was found to be 38.3%. Also, the inhibition of growth at 500 µg/mL in the assay with Bipolaris sorokiniana [2] is 38.4%; in the assay with Alternaria brassicae [4], 53.3%; in [6], 33.3%; in assay [8] it was 44.3%; in the assay with Pyricularia oryzae [10] it was 43.1%; in the assay on Fusarium graminearum [12], 56%. In the assay with Alternaria alternata [13], the inhibition of growth at 500 µg/mL amounted to 51%.
Turning to `O=[N+]([O-])c1ccc(Oc2ccccc2)cc1`, the inhibition of growth at 50 µg/mL in the assay with Bipolaris sorokiniana [1] amounted to 87.2%; in the assay with Alternaria brassicae [3], 55.5%; in assay [5] it was 61.2%; in [7], 81.8%; with Pyricularia oryzae [9], 48%; in the assay with Alternaria alternata [11] it was 66.8%. In the assay with Fusarium graminearum [14], the inhibition of growth at 50 µg/mL was determined as 71.6%. The inhibition of growth at 500 µg/mL with Bipolaris sorokiniana [2] is 73%; with Alternaria brassicae [4] it was 76%; in [6], 72.9%; in assay [8], 83.4%; with Pyricularia oryzae [10], 81.9%; in the assay on Fusarium graminearum [12], 87.4%. Also, in the assay on Alternaria alternata [13], the inhibition of growth at 500 µg/mL came to 83.8%.
As for `O=[N+]([O-])c1ccc(Oc2ccc(Cl)cc2)cc1`, the inhibition of growth at 50 µg/mL in the assay with Bipolaris sorokiniana [1] was 78.1%; in the assay on Alternaria brassicae [3], 42.7%; in assay [5], 34.1%; in assay [7], 41.4%; with Pyricularia oryzae [9], 47.6%; in the assay on Alternaria alternata [11] it was 47.4%. Also, in the assay on Fusarium graminearum [14], the inhibition of growth at 50 µg/mL was 63%. In addition, the inhibition of growth at 500 µg/mL in the assay on Bipolaris sorokiniana [2] was determined as 74.3%; in the assay with Alternaria brassicae [4], 47.2%; in [6], 38%; in assay [8], 43.4%; in the assay on Pyricularia oryzae [10], 63.8%; with Fusarium graminearum [12] it was 66.8%. In the assay with Alternaria alternata [13], the inhibition of growth at 500 µg/mL is 61.3%.
For `CC(C)(C)c1ccc(Oc2ccc([N+](=O)[O-])cc2)cc1`, the inhibition of growth at 50 µg/mL is 21.6% with Bipolaris sorokiniana [1]; 32% in the assay on Alternaria brassicae [3]; 3.6% in assay [5]; 14.1% in [7]; 32% in the assay with Pyricularia oryzae [9]; 25.5% with Alternaria alternata [11]. Moreover, the inhibition of growth at 50 µg/mL in the assay with Fusarium graminearum [14] was 55.6%. Besides, the inhibition of growth at 500 µg/mL stood at 23.5% in the assay with Bipolaris sorokiniana [2]; 32% in the assay with Alternaria brassicae [4]; 10.3% in [6]; 67.7% in assay [8]; 40.4% in the assay on Pyricularia oryzae [10]; 56% with Fusarium graminearum [12]. Besides, the inhibition of growth at 500 µg/mL in the assay with Alternaria alternata [13] was 27.7%.
